Measurements published in the NIST ThermoML archive (doi:10.1021/je9002724).
Numbers after ± are expanded uncertainties.

Test: activity coefficient (dimensionless); of the first substance listed, at infinite dilution; xn = mol fraction of the nth substance listed
Details: Liquid, Chromatography, x1 = 0

SMILES | activity coefficient (303.15 K) | activity coefficient (313.15 K) | activity coefficient (323.15 K) | activity coefficient (333.15 K) | activity coefficient (343.15 K) | activity coefficient (353.15 K) | activity coefficient (363.15 K)
CCCCCCCCC [nonane] + C[n+]1ccn(CCO)c1.F[B-](F)(F)F | 546 ± 58 | 564 ± 60 | 582 ± 61 | 599 ± 63 | 616 ± 65 | 633 ± 67 | 651 ± 69
Cc1ccccc1C [1,2-dimethylbenzene] + C[n+]1ccn(CCO)c1.F[B-](F)(F)F | 28.9 ± 3 | 28.2 ± 3 | 27.7 ± 2.9 | 27 ± 2.8 | 26.5 ± 2.8 | 25.9 ± 2.7 | 25.4 ± 2.7
Cc1ccccc1 [toluene] + C[n+]1ccn(CCO)c1.F[B-](F)(F)F | 18.3 ± 1.9 | 18 ± 1.9 | 17.7 ± 1.9 | 17.5 ± 1.8 | 17.3 ± 1.8 | 17.2 ± 1.8 | 16.9 ± 1.8
CCCCCCCC [octane] + C[n+]1ccn(CCO)c1.F[B-](F)(F)F | 498 ± 52 | 532 ± 56 | 574 ± 61 | 615 ± 65 | 659 ± 70 | 709 ± 75 | 760 ± 80
C1=CCCCC1 [cyclohexene] + C[n+]1ccn(CCO)c1.F[B-](F)(F)F | 123 ± 13 | 118 ± 12 | 114 ± 12 | 110 ± 12 | 106 ± 11 | 103 ± 11 | 100 ± 11
CC1CCCCC1 [methylcyclohexane] + C[n+]1ccn(CCO)c1.F[B-](F)(F)F | 328 ± 35 | 373 ± 39 | 421 ± 44 | 486 ± 51 | 546 ± 58 | 611 ± 64 | 677 ± 71
Cc1cccc(C)c1 [1,3-dimethylbenzene] + C[n+]1ccn(CCO)c1.F[B-](F)(F)F | 37.2 ± 3.9 | 36.3 ± 3.8 | 35.5 ± 3.7 | 34.7 ± 3.7 | 34 ± 3.6 | 33.2 ± 3.5 | 32.5 ± 3.4
C1CCCCC1 [cyclohexane] + C[n+]1ccn(CCO)c1.F[B-](F)(F)F | 339 ± 36 | 418 ± 44 | 488 ± 52 | 593 ± 63 | 689 ± 73 | 803 ± 85 | 934 ± 99
CC(C)CC(C)(C)C [2,2,4-trimethylpentane] + C[n+]1ccn(CCO)c1.F[B-](F)(F)F | 412 ± 44 | 523 ± 55 | 731 ± 77 | 962 ± 100 | 1300 ± 140 | 1700 ± 180 | 2310 ± 240
Cc1ccc(C)cc1 [1,4-dimethylbenzene] + C[n+]1ccn(CCO)c1.F[B-](F)(F)F | 35.4 ± 3.7 | 34.7 ± 3.6 | 33.9 ± 3.6 | 33.2 ± 3.5 | 32.5 ± 3.4 | 32 ± 3.4 | 31.4 ± 3.3
CCc1ccccc1 [ethylbenzene] + C[n+]1ccn(CCO)c1.F[B-](F)(F)F | 42.1 ± 4.4 | 40.6 ± 4.3 | 39 ± 4.1 | 37.9 ± 4 | 36.7 ± 3.9 | 35.9 ± 3.8 | 35 ± 3.7
C=Cc1ccccc1 [styrene] + C[n+]1ccn(CCO)c1.F[B-](F)(F)F | 15.3 ± 1.6 | 15.1 ± 1.6 | 14.8 ± 1.6 | 14.6 ± 1.5 | 14.4 ± 1.5 | 14.2 ± 1.5 | 14 ± 1.5
c1ccccc1 [benzene] + C[n+]1ccn(CCO)c1.F[B-](F)(F)F | 9.13 ± 0.96 | 9.11 ± 0.96 | 9.1 ± 0.96 | 9.08 ± 0.95 | 9.06 ± 0.95 | 9.05 ± 0.95 | 9.04 ± 0.95
CCCCCCC [heptane] + C[n+]1ccn(CCO)c1.F[B-](F)(F)F | 620 ± 65 | 850 ± 90 | 1200 ± 130 | 1610 ± 170 | 2190 ± 230 | 2980 ± 310 | 4220 ± 450
